Measurements as given in US20240092761A1, “QUINAZOLINE COMPOUNDS AND METHODS OF USE” (IAMBIC THERAPEUTICS, INC., priority 2022, published 2024).

How the values were obtained:
CDK1/Cyclin B1 = CDK1/Cyclin B1 (Homo sapiens (Human), UniProt P06493); experiment: CDK1/Cyclin B1 ADP-Glo Kinase Assay; type: biochemical; conditions: 80 uM ATP
In short: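 CDK1/cyclin B1 (4.917 nM) preincubated 30 min with inhibitor (2% DMSO), then 80 µM ATP (Km 78.6 µM) and 0.75 µM substrate added; 90 min, room temperature, pH 7.5. ADP measured by ADP-Glo luminescence; IC50 from 4-parameter fit.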

[1] = target: CDK2/Cyclin E1 full length (Homo sapiens (Human), UniProt P24941); experiment: CDK2/Cyclin E1 Full Length ADP-Glo Kinase Assay; type: biochemical; conditions: 20 uM ATP, read-out: CDK2/ CyclinE1 IC50
In short: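 Full-length human CDK2/Cyclin E1 (0.328 nM) pre-incubated 30 min with inhibitor at RT, then reacted 90 min at RT with 20 uM ATP (Km 64.78 uM) and 0.75 uM substrate in pH 7.5 HEPES, 2% DMSO. ADP measured by ADP-Glo luminescence; IC50 from 4-parameter fit of fractional velocity.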

CDK4/Cyclin D1 = CDK4/Cyclin D1 (Homo sapiens (Human), UniProt P11802); experiment: CDK4/Cyclin D1 Mobility Shift Assay (MSA); type: biochemical; conditions: 0.2 mM ATP, read-out: CDK4/ CyclinD1 MSA IC50
Text: CDK4/Cyclin D1 Mobility Shift Assay (MSA)
The purpose CDK4/Cyclin D1 assay is to evaluate the inhibition (% inhibition and IC50 values) in the presence of small molecule inhibitors by using a fluorescence based microfluidic mobility shift assay. CDK4/Cyclin D1 catalyzes the production of ADP from ATP that accompanies the phosphoryl transfer to the substrate peptide 5-FAM-Dyrktide (5-FAM-RRRFRPASPLRGPPK) (Perkin Elmer Peptide 34). The mobility shift assay (MSA) electrophoretically separates the fluorescently labelled peptides (substrate and phosphorylated product) following the kinase reaction. Both substrate and product are measured, and the ratio of these values is used to generate % conversion of substrate to product by the LabChip EZ Reader. Typical reaction solutions contained 2% DMSO (+/−inhibitor), 10 mM MgCl2, 1 mM EGTA, 0.05% BSA, 2 mM DTT, 0.2 mM ATP, 0.01% Brig-35, 1.5 uM 5-FAM-Dyrktide, 2.5 nM CDK4/Cyclin D1 in 50 mM HEPES buffer at pH 7.5. The reaction was initiated with the addition of substrate solution, following a 30-minute pre-incubation of enzyme and inhibitor at 22° C. in the reaction mix. The reaction was stopped after 180 minutes by the addition of 75 uL of 500 mM EDTA and measured on a Perkin Elmer EZ reader instrument. IC50 determinations were made from a plot of the fractional velocity as a function of inhibitor concentration fit to the 4 parameters IC50 equation.

CDK6/Cyclin D3 = CDK6/Cyclin D3 (Homo sapiens (Human), UniProt Q00534); experiment: CDK6/Cyclin D3 ADP-Glo Kinase Assay; type: biochemical; conditions: 100 uM ATP, read-out: CDK6/ CyclinD3 IC50
In short: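 Recombinant human CDK6/Cyclin D3 pre-incubated 30 min with inhibitor at room temperature, then reaction started with ATP/substrate and run 90 min at room temperature. ADP formed detected by ADP-Glo luminescence; IC50 from a 4-parameter fit of fractional velocity versus inhibitor concentration.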

MCF-7 cells = experiment: Cell Growth Inhibition, MCF-7 (CellTiterGlo, 6 days); type: cell-based; conditions: MCF-7, 6-day treatment, CellTiterGlo 2.0
In short: (§1)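 MCF-7 and OVCAR-3 cells (RPMI, 10% FBS) were seeded at 500 cells/well onto compound, typically 10–10,000 nM in half-log dilutions. Growth proceeded 6 days at 37 °C, then CellTiterGlo luminescence was read. % inhibition was taken versus control, and IC50 came from a four-parameter variable-slope fit.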

OVCAR-3 cells = experiment: Cell Growth Inhibition, OVCAR-3 (CellTiterGlo, 6 days); type: cell-based; conditions: OVCAR-3, 6-day treatment, CellTiterGlo 2.0
In short: as §1

CDK6/Cyclin D3, sequence (Q00534 whole entry): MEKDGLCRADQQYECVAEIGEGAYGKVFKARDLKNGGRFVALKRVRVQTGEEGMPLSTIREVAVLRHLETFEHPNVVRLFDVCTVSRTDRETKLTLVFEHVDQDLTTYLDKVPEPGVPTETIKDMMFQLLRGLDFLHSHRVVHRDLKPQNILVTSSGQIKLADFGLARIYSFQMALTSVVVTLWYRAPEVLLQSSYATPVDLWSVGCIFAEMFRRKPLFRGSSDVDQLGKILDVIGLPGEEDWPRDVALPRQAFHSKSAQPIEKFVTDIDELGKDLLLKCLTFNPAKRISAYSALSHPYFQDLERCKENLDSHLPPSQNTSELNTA
CDK6/Cyclin D3, sequence (P30281 whole entry partner): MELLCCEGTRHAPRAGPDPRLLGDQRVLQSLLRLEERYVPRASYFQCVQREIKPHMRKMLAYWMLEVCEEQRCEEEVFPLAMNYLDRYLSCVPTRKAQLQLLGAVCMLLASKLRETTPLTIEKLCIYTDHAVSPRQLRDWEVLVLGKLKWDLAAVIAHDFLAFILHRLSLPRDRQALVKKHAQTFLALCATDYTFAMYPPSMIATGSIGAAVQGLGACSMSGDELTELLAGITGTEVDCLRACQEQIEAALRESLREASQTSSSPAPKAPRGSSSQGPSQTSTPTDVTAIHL
CDK4/Cyclin D1, sequence (P11802 whole entry): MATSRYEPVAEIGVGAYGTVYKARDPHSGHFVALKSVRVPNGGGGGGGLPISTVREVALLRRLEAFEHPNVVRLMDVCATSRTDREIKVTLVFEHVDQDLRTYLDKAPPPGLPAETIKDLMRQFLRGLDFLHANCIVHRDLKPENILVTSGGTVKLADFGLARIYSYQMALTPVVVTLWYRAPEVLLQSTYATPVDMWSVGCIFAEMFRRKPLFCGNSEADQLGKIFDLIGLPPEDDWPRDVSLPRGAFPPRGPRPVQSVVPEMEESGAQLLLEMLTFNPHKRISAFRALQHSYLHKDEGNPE
CDK4/Cyclin D1, sequence (P24385 whole entry partner): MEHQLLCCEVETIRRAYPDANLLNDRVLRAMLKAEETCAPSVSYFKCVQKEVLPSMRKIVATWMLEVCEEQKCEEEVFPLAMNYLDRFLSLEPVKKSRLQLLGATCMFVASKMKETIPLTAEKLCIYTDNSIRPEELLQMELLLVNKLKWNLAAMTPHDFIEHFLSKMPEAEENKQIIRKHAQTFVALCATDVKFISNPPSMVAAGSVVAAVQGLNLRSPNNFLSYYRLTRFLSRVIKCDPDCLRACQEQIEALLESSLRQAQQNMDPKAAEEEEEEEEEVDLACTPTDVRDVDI
CDK1/Cyclin B1, sequence (P06493 whole entry): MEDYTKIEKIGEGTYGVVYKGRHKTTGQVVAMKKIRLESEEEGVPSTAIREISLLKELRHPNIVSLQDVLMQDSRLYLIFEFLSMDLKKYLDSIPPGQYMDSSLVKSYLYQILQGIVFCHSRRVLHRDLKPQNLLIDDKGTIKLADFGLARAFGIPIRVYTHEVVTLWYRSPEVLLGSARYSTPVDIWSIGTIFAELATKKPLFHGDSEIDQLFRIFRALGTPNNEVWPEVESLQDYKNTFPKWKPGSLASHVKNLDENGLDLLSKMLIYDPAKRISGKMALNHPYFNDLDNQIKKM
CDK1/Cyclin B1, sequence (P14635 whole entry partner): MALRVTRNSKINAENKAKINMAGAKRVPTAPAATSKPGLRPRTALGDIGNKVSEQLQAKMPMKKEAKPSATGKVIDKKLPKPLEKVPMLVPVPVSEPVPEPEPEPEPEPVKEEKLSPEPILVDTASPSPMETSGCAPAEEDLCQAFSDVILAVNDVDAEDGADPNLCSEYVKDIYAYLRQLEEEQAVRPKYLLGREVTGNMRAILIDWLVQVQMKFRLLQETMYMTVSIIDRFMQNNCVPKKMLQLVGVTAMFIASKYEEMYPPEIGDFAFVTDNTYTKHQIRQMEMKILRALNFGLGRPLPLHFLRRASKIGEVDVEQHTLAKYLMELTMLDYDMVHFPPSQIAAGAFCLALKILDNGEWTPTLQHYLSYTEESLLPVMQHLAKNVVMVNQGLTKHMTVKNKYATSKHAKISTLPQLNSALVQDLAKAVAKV

| IC50 (CDK1/Cyclin B1) | IC50 [1] | IC50 (CDK4/Cyclin D1) | IC50 (CDK6/Cyclin D3) | IC50 (MCF-7 cells; Homo sapiens, MCF7, 144 h) | IC50 (OVCAR-3 cells; Homo sapiens, 144 h) | IC50 (MCF-7 cells) | IC50 (OVCAR-3 cells) | Structure (SMILES) |
| --- | --- | --- | --- | --- | --- | --- | --- | --- |
| 500 to 2000 nM | < 200 nM | < 200 nM | 500 to 2000 nM | > 2000 nM | > 2000 nM | – | – | COCCN1CC2(C1)CN(c1cccc3cnc(NC4CCN(S(C)(=O)=O)CC4)nc13)C2 [Example 36, 8-(6-(2-methoxyethyl)-2,6-diazaspiro[3.3]heptan-2-yl)-N-(1-(methylsulfonyl)piperidin-4-yl)quinazolin-2-amine] |
| 500 to 2000 nM | < 200 nM | < 200 nM | < 200 nM | > 2000 nM | > 2000 nM | – | – | CS(=O)(=O)N1CCC(Nc2ncc3cccc(N4CCC5(CCC5(F)F)C4)c3n2)CC1 (stereo not drawn) [Example 37, 8-(1,1-difluoro-6-azaspiro[3.4]octan-6-yl)-N-(1-(methylsulfonyl)piperidin-4-yl)quinazolin-2-amine] |
| > 2000 nM | 200 to 500 nM | < 200 nM | 200 to 500 nM | 500 to 2000 nM | 500 to 2000 nM | – | – | CC(=O)N1CCC2(CCN(c3cccc4cnc(Nc5ccc6c(c5)CCN(C)C6)nc34)C2)C1 (stereo not drawn) [Example 38, 1-(7-(2-((2-methyl-1,2,3,4-tetrahydroisoquinolin-6-yl)amino)quinazolin-8-yl)-2,7-diazaspiro[4.4]nonan-2-yl)ethan-1-one] |
| 500 to 2000 nM | < 200 nM | < 200 nM | 500 to 2000 nM | > 2000 nM | > 2000 nM | – | – | COCCN1CCC2(C1)CN(c1cccc3cnc(NC4CCN(S(C)(=O)=O)CC4)nc13)C2 [Example 39, 8-(6-(2-methoxyethyl)-2,6-diazaspiro[3.4]octan-2-yl)-N-(1-(methylsulfonyl)piperidin-4-yl)quinazolin-2-amine] |
| 500 to 2000 nM | 200 to 500 nM | 200 to 500 nM | 200 to 500 nM | > 2000 nM | > 2000 nM | – | – | CN1CCC2(C1)CN(c1cccc3cnc(NC4CCN(S(C)(=O)=O)CC4)nc13)C2 [Example 40, 8-(6-methyl-2,6-diazaspiro[3.4]octan-2-yl)-N-(1-(methylsulfonyl)piperidin-4-yl)quinazolin-2-amine] |
| > 2000 nM | > 2000 nM | 200 to 500 nM | 500 to 2000 nM | > 2000 nM | > 2000 nM | – | – | CC(=O)N1CCC2(CCN(c3cccc4cnc(Nc5ccc(N6CC7(COC7)C6)cn5)nc34)C2)C1 (stereo not drawn) [Example 41, 1-(7-(2-((5-(2-oxa-6-azaspiro[3.3]heptan-6-yl)pyridin-2-yl)amino)quinazolin-8-yl)-2,7-diazaspiro[4.4]nonan-2-yl)ethan-1-one] |
| > 2000 nM | > 2000 nM | < 200 nM | 200 to 500 nM | 200 to 500 nM | > 2000 nM | – | – | CN1CC2(CCN(c3cccc4cnc(Nc5ccc(N6CC7(COC7)C6)cn5)nc34)C2)C1 [Example 42, N-(5-(2-oxa-6-azaspiro[3.3]heptan-6-yl)pyridin-2-yl)-8-(2-methyl-2,6-diazaspiro[3.4]octan-6-yl)quinazolin-2-amine] |
| > 2000 nM | > 2000 nM | 200 to 500 nM | 500 to 2000 nM | 500 to 2000 nM | > 2000 nM | – | – | COCCN1CC2(CCN(c3cccc4cnc(Nc5ccc(N6CC7(COC7)C6)cn5)nc34)C2)C1 [Example 43, N-(5-(2-oxa-6-azaspiro[3.3]heptan-6-yl)pyridin-2-yl)-8-(2-(2-methoxyethyl)-2,6-diazaspiro[3.4]octan-6-yl)quinazolin-2-amine] |
| 500 to 2000 nM | < 200 nM | < 200 nM | < 200 nM | > 2000 nM | > 2000 nM | – | – | CC(=O)N1CCC2(CCN(c3c(F)ccc4cnc(NC5CCN(S(C)(=O)=O)CC5)nc34)C2)C1 (stereo not drawn) [Example 45, 1-(7-(7-fluoro-2-((1-(methylsulfonyl)piperidin-4-yl)amino)quinazolin-8-yl)-2,7-diazaspiro[4.4]nonan-2-yl)ethan-1-one] |
| > 2000 nM | > 2000 nM | < 200 nM | 200 to 500 nM | 500 to 2000 nM | > 2000 nM | – | – | CCN1CC2(C1)CN(c1ccc(Nc3ncc4cccc(N5CCC6(CCN(C(C)=O)C6)C5)c4n3)nc1)C2 (stereo not drawn) [Example 46, 1-(7-(2-((5-(6-ethyl-2,6-diazaspiro[3.3]heptan-2-yl)pyridin-2-yl)amino)quinazolin-8-yl)-2,7-diazaspiro[4.4]nonan-2-yl)ethan-1-one] |
| > 2000 nM | > 2000 nM | 200 to 500 nM | 200 to 500 nM | > 2000 nM | > 2000 nM | – | – | CC(=O)N1CCC2(CCN(c3cccc4cnc(Nc5ccc(N6CC7(C6)CC(F)(F)C7)cn5)nc34)C2)C1 (stereo not drawn) [Example 47, 1-(7-(2-((5-(6,6-difluoro-2-azaspiro[3.3]heptan-2-yl)pyridin-2-yl)amino)quinazolin-8-yl)-2,7-diazaspiro[4.4]nonan-2-yl)ethan-1-one] |
| > 2000 nM | > 2000 nM | < 200 nM | < 200 nM | 500 to 2000 nM | > 2000 nM | – | – | CCN1CC2(C1)CN(c1ccc(Nc3ncc4cccc(N5CC6(CC(O)C6)C5)c4n3)nc1)C2 [Example 48, 2-(2-((5-(6-ethyl-2,6-diazaspiro[3.3]heptan-2-yl)pyridin-2-yl)amino)quinazolin-8-yl)-2-azaspiro[3.3]heptan-6-ol] |
| 200 to 500 nM | < 200 nM | < 200 nM | < 200 nM | 500 to 2000 nM | > 2000 nM | – | – | CC(=O)N1CCC2(CCN(c3cc(C(F)F)cc4cnc(NC5CCN(S(C)(=O)=O)CC5)nc34)C2)C1 (stereo not drawn) [Example 50, 1-(7-(6-(difluoromethyl)-2-((1-(methylsulfonyl)piperidin-4-yl)amino)quinazolin-8-yl)-2,7-diazaspiro[4.4]nonan-2-yl)ethan-1-one] |
| > 2000 nM | 500 to 2000 nM | < 200 nM | < 200 nM | 500 to 2000 nM | 500 to 2000 nM | – | – | CC(=O)N1CCC2(CCN(c3cc(C(F)F)cc4cnc(Nc5ccc(N6CCN(C)CC6)cc5)nc34)C2)C1 (stereo not drawn) [Example 51, 1-(7-(6-(difluoromethyl)-2-((4-(4-methylpiperazin-1-yl)phenyl)amino)quinazolin-8-yl)-2,7-diazaspiro[4.4]nonan-2-yl)ethan-1-one] |
| 500 to 2000 nM | 500 to 2000 nM | < 200 nM | 500 to 2000 nM | 200 to 500 nM | 500 to 2000 nM | – | – | CC(=O)N1CCC2(CCN(c3cc(C(F)F)cc4cnc(Nc5cnn(C(C)C)c5)nc34)C2)C1 (stereo not drawn) [Example 52, 1-(7-(6-(difluoromethyl)-2-((1-isopropyl-1H-pyrazol-4-yl)amino)quinazolin-8-yl)-2,7-diazaspiro[4.4]nonan-2-yl)ethan-1-one] |
| > 2000 nM | > 2000 nM | < 200 nM | < 200 nM | – | – | 500 to 2000 nM | > 2000 nM | FC(F)c1cc(N2CCC3(C2)CC3(F)F)c2nc(NC3[C@H]4CNC[C@@H]34)ncc2c1 (stereo partly drawn) [Example 53, 8-(1,1-difluoro-5-azaspiro[2.4]heptan-5-yl)-6-(difluoromethyl)-N-((1R,5S,6s)-3-azabicyclo[3.1.0]hexan-6-yl)quinazolin-2-amine] |
| > 2000 nM | > 2000 nM | < 200 nM | 200 to 500 nM | – | – | > 2000 nM | > 2000 nM | CN1C[C@@H]2[C@H](C1)[C@H]2Nc1ncc2cc(C(F)F)cc(N3CCC4(C3)CS(=O)(=O)C4)c2n1 [Example 54, 6-(6-(difluoromethyl)-2-(((1R,5S,6s)-3-methyl-3-azabicyclo[3.1.0]hexan-6-yl)amino)quinazolin-8-yl)-2-thia-6-azaspiro[3.4]octane 2,2-dioxide] |
